{"source": "patent US11230717B2", "about": "“Plants having increased tolerance to herbicides” (BASF SE, priority 2013, dated 2022)", "key": {"Arabidopsis HPPD": {"target": "T1, Arabidopsis HPPD (Arabidopsis thaliana, UniProt P93836)", "T1 construct": "His6 (N); made in house; host or cells: E. coli BL21 (DE3)", "T1 sequence (P93836 1-445)": "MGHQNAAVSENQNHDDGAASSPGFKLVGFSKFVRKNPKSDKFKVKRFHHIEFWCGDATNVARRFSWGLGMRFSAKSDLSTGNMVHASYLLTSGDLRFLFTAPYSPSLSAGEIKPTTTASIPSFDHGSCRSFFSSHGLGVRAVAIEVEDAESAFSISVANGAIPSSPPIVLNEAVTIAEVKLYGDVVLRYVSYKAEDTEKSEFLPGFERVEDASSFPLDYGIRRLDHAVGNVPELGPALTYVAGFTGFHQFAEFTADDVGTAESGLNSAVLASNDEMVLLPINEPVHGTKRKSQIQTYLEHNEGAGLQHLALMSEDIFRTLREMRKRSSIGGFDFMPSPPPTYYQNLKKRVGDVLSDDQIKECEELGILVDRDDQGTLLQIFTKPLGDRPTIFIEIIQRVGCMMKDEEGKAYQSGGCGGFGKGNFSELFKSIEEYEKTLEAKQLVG", "assay": "HPPD activity assay (homogentisic acid by HPLC), in vitro characterization", "assay_type": "biochemical", "procedure": "(§1) HPPD produces homogentisic acid and CO2 from 4-hydroxyphenylpyruvate (4-HPP) and O2. The activity assay for HPPD is based on the analysis of homogentisic acid by reversed phase HPLC.\n(§2) The assay mixture can contain 150 mM potassium phosphate buffer pH 7.0, 50 mM L-ascorbic acid, 100 μM Catalase (Sigma-Aldrich), 1 μM FeSO4 and 0.2 units of purified HPPD enzyme in a total volume of 505 μl. 1 unit is defined as the amount of enzyme that is required to produce 1 nmol of HGA per minute at 20° C.\n(§3) After a preincubation of 30 min the reaction is started by adding 4-HPP to a final concentration of 0.05 mM. The reaction is allowed to proceed for 45 min at room temperature. The reaction is stopped by the addition of 50 μl of 4.5 M phosphoric acid. The sample is filtered using a […] pore size PVDF filtration device.\n(§4) 5 μl of the cleared sample is analyzed on an UPLC HSS T3 column (particle size 1.8 μm, dimensions 2,1×50 mm; Waters) by isocratic elution using 90% 20 mM NaH2PO4 pH 2.2, 10% methanol (v/v).\n(§5) HGA is detected electrochemically at 750 mV (mode: DC; polarity: positive) and quantified by integrating peak areas (Empower software; Waters).\n(§6) Inhibitors are dissolved in DMSO (dimethylsulfoxide) to a concentration of 0.5 mM. From this stock solution serial five-fold dilutions are prepared in DMSO, which are used in the assay. The respective inhibitor solution accounts for 1% of the assay volume. […] Activities are normalized by setting the uninhibited enzyme activity to 100%. IC50 values are calculated using non-linear regression.\n(§7) Using methods which are described in the above examples or well known in the art, purified, recombinant wildtype HPPD enzymes are characterized with respect to their kinetic properties and sensitivity towards HPPD inhibiting herbicides. Apparent michaelis constants (Km) and maximal reaction velocities (Vmax) are calculated by non-linear regression with the software GraphPad Prism 5 (GraphPad Software, La Jolla, USA) using a substrate inhibition model. […] Weighted means (by standard error) of Km and IC50 values are calculated from at least three independent experiments. […] To assess the potential performance of a herbicide tolerance trait a tolerance index (TI) is calculated using the following formula: […]"}, "[1]": {"target": "T2, Hordeum HPPD (SEQ ID NO:2) (Hordeum vulgare, UniProt O48604, A164G/R146V/R147D/R148G)", "T2 construct": "subcloned into a modified pET24D (Novagen) expression vector resulting in N-terminally His-tagged expression constructs; His (N); made in house; host or cells: E. coli BL21 (DE3)", "T2 sequence (O48604 whole entry R146V/R147D/R148G/A164G)": "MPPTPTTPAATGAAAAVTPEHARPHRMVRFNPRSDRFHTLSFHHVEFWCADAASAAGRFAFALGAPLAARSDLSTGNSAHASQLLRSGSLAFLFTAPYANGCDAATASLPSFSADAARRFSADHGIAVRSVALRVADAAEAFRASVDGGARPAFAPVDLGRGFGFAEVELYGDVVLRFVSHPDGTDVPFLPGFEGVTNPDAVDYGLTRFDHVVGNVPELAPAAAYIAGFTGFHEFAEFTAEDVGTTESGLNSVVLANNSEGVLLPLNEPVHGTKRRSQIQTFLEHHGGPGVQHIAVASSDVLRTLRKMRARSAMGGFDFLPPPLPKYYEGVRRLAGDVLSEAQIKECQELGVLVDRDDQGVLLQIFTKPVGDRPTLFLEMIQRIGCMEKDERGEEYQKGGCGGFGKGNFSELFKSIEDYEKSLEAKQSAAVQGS", "assay": "HPPD activity assay, in vitro characterization", "assay_type": "biochemical", "procedure": "as §1, §2, §3, §4, §5, §6, §7"}, "[2]": {"system": "transgenic Arabidopsis plants", "assay": "Greenhouse testing of transgenic Arabidopsis plants (T2), herbicide spray test", "assay_type": "in vivo, Arabidopsis thaliana", "conditions": "for Injury evaluation, scale 0-100%: Arabidopsis", "procedure": "Transgenic plants expressing heterologous HPPD or HST enzymes are tested for tolerance against HPPD-inhibiting herbicides in greenhouse experiments.\nFor post emergence treatment, the test plants are first grown to a height of 3 to 15 cm, depending on the plant habit, and only then treated with the herbicides. For this purpose, the test plants are either sown directly and grown in the same containers, or they are first grown separately and transplanted into the test containers a few days prior to treatment. For testing of T0 plants, cuttings can be used. In the case of soybean plants, an optimal shoot for cutting is about 7.5 to 10 cm tall, with at least two nodes present. Each cutting is taken from the original transformant (mother plant) and dipped into rooting hormone powder (indole-3-butyric acid, IBA). The cutting is then placed in oasis wedges inside a bio-dome. Wild type cuttings are also taken simultaneously to serve as controls. The cuttings are kept in the bio-dome for 5-7 days and then transplanted to pots and then acclimated in the growth chamber for two more days. Subsequently, the cuttings are transferred to the greenhouse, acclimated for approximately 4 days, and then subjected to spray tests as indicated.\nAdditionally, T1 and T2 transgenic Arabidopsis plants can be tested for improved tolerance to HPPD-inhibiting herbicides in a greenhouse studies. Herbicide injury scoring is done 2-3 weeks after treatment and is rated on a scale of 0 to 100%, 0% being no injury and 100% being complete death."}}, "data": [{"smiles": "O=C(O)C(=O)Cc1ccc(O)cc1", "note": "[Inhibitor 4-HPP, 4-hydroxyphenylpyruvate, reference compound]", "values": [{"measurement": "Km", "setting": "Arabidopsis HPPD; Arabidopsis HPPD, apparent michaelis constant, read-out: Km (4-HPP)", "result": 13, "unit": "µM"}, {"measurement": "kcat", "setting": "Arabidopsis HPPD; Arabidopsis HPPD, turnover number, substrate 4-HPP", "result": 12.9, "unit": "s⁻¹"}, {"measurement": "Km", "setting": "[1]; Hordeum HPPD, apparent michaelis constant, read-out: Km (4-HPP)", "result": 26, "unit": "µM"}, {"measurement": "kcat", "setting": "[1]; Hordeum HPPD, turnover number, substrate 4-HPP", "result": 11.5, "unit": "s⁻¹"}]}, {"smiles": "CSc1c(Cl)cc(F)c(C(=O)Nc2nnnn2C)c1Cl", "note": "[Inhibitor 2, 2,4-dichloro-6-fluoro-3-methylsulfanyl-N-(1-methyltetrazol-5-yl)benzamide]", "values": [{"measurement": "tolerance factor", "setting": "[2]; Arabidopsis HvL320H, P321A, highest rate active ingredient applied", "result": "outstanding tolerance factor"}, {"measurement": "tolerance compared to untransformed wild-type control", "setting": "[2]; Arabidopsis expressing Rhodococcus HPPD (SEQ ID NO:46), highest concentration", "result": 2, "unit": "fold"}, {"measurement": "Injury evaluation, scale 0-100%", "setting": "[2]; transgene AtF381I, 3.125 g/ha, two weeks", "result": 20, "unit": "%"}, {"measurement": "Injury evaluation, scale 0-100%", "setting": "[2]; transgene AtF381I, 6.25 g/ha, two weeks", "result": 25, "unit": "%"}, {"measurement": "Injury evaluation, scale 0-100%", "setting": "[2]; transgene AtF381I, 12.5 g/ha, two weeks", "result": 40, "unit": "%"}, {"measurement": "Injury evaluation, scale 0-100%", "setting": "[2]; transgene AtM335H, P336A, E363Q, 1.56 g/ha, two weeks", "result": 0, "unit": "%"}, {"measurement": "Injury evaluation, scale 0-100%", "setting": "[2]; transgene AtM335H, P336A, E363Q, 3.125 g/ha, two weeks", "result": 7, "unit": "%"}, {"measurement": "Injury evaluation, scale 0-100%", "setting": "[2]; transgene AtM335H, P336A, E363Q, 6.25 g/ha, two weeks", "result": 7, "unit": "%"}, {"measurement": "Injury evaluation, scale 0-100%", "setting": "[2]; transgene AtM335H, P336A, E363Q, 12.5 g/ha, two weeks", "result": 47, "unit": "%"}, {"measurement": "Injury evaluation, scale 0-100%", "setting": "[2]; transgene HvL320H, P321A, 1.56 g/ha, two weeks", "result": 0, "unit": "%"}, {"measurement": "Injury evaluation, scale 0-100%", "setting": "[2]; transgene HvL320H, P321A, 3.125 g/ha, two weeks", "result": 5, "unit": "%"}, {"measurement": "Injury evaluation, scale 0-100%", "setting": "[2]; transgene HvL320H, P321A, 6.25 g/ha, two weeks", "result": 7, "unit": "%"}, {"measurement": "Injury evaluation, scale 0-100%", "setting": "[2]; transgene HvL320H, P321A, 12.5 g/ha, two weeks", "result": 8, "unit": "%"}, {"measurement": "Injury evaluation, scale 0-100%", "setting": "[2]; transgene HvL320H, 1.56 g/ha, two weeks", "result": 0, "unit": "%"}, {"measurement": "Injury evaluation, scale 0-100%", "setting": "[2]; transgene HvL320H, 3.125 g/ha, two weeks", "result": 12, "unit": "%"}, {"measurement": "Injury evaluation, scale 0-100%", "setting": "[2]; transgene HvL320H, 6.25 g/ha, two weeks", "result": 18, "unit": "%"}, {"measurement": "Injury evaluation, scale 0-100%", "setting": "[2]; transgene HvL320H, 12.5 g/ha, two weeks", "result": 33, "unit": "%"}, {"measurement": "Injury evaluation, scale 0-100%", "setting": "[2]; transgene None, 1.56 g/ha, two weeks after treatment", "result": 86, "unit": "%"}, {"measurement": "Injury evaluation, scale 0-100%", "setting": "[2]; transgene None, 3.125 g/ha, two weeks after treatment", "result": 87, "unit": "%"}, {"measurement": "Injury evaluation, scale 0-100%", "setting": "[2]; transgene None, 6.25 g/ha, two weeks after treatment", "result": 98, "unit": "%"}, {"measurement": "Injury evaluation, scale 0-100%", "setting": "[2]; transgene None, 12.5 g/ha, two weeks after treatment", "result": 94, "unit": "%"}, {"measurement": "Injury evaluation, scale 0-100%", "setting": "[2]; transgene RjHPPD, 1.56 g/ha, two weeks", "result": 2, "unit": "%"}, {"measurement": "Injury evaluation, scale 0-100%", "setting": "[2]; transgene RjHPPD, 3.125 g/ha, two weeks", "result": 12, "unit": "%"}, {"measurement": "Injury evaluation, scale 0-100%", "setting": "[2]; transgene RjHPPD, 6.25 g/ha, two weeks", "result": 13, "unit": "%"}, {"measurement": "Injury evaluation, scale 0-100%", "setting": "[2]; transgene RjHPPD, 12.5 g/ha, two weeks", "result": 46, "unit": "%"}, {"measurement": "Ki", "setting": "Arabidopsis HPPD", "result": 20, "unit": "nM"}, {"measurement": "Ki", "setting": "[1]", "result": 11, "unit": "nM"}]}]}
